{
  "source": "PubChem BioAssay AID1259411",
  "about": "(Chemical Carcinogenesis Research Information System (CCRIS), 2018)",
  "system": "rodent carcinogenicity bioassays, tumor incidence",
  "experiment": "CCRIS carcinogenicity studies",
  "in_short": "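Archive of carcinogenicity, mutagenicity, tumor promotion and tumor inhibition results drawn from journals, NCI reports and other sources, expert-reviewed; covers 1985-2011 and is no longer updated.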",
  "note": "Calls of active or inactive are those of the source. How the calls were made is not given here.",
  "data": [
    {"smiles": "CN(CCC#N)N=O", "values": [
      {"measurement": "carcinogen call", "setting": "Species: RAT, Strain/Sex: F344/FEMALE, Route: SUBCUTANEOUS, Dose: 0, 0.019 MMOL 3/WK FOR 20 WK (STUDY DURATION: 24 WK), Tumor Site: Type of Lesion: ESOPHAGUS: PAPILLOMA, NASAL CAVITY: PAPILLOMA, TONGUE: PAPILLOMA OR CARCINOMA, Tumor Site: Type of Lesion: ESOPHAGUS: PAPILLOMA, NASAL CAVITY: PAPILLOMA, TONGUE: PAPILLOMA OR CARCINOMA", "result": "active; positive"},
      {"measurement": "carcinogen call", "setting": "Species: RAT, Strain/Sex: F344/MALE, FEMALE, Route: SUBCUTANEOUS, Dose: 0, 2.13 MG IN 0.3 ML SALINE 3/WK FOR 20 WK (TOTAL DOSE 127.8 MG) (STUDY DURATION: 24 WK), Tumor Site: Type of Lesion: ESOPHAGUS: SQUAMOUS CELL PAPILLOMA, SQUAMOUS CELL CARCINOMA, TONGUE: PAPILLOMA, CARCINOMA, NASAL CAVITY: PAPILLOMA, ESTH, Tumor Site: Type of Lesion: ESOPHAGUS: SQUAMOUS CELL PAPILLOMA, SQUAMOUS CELL CARCINOMA, TONGUE: PAPILLOMA, CARCINOMA, NASAL CAVITY: PAPILLOMA, ESTH", "result": "active; positive"},
      {"measurement": "carcinogen call", "setting": "Species: RAT, Strain/Sex: F344/MALE,FEMALE, Route: SUBCUTANEOUS, Dose: 2.13 MG 3/WK FOR 20 WK (TOTAL DOSE 129 MG), Tumor Site: Type of Lesion: ESOPHAGUS: PAPILLOMA, CARCINOMA, NASAL CAVITY: PAPILLOMA, TONGUE: PAPILLOMA, CARCINOMA, Tumor Site: Type of Lesion: ESOPHAGUS: PAPILLOMA, CARCINOMA, NASAL CAVITY: PAPILLOMA, TONGUE: PAPILLOMA, CARCINOMA", "result": "active; positive"},
      {"measurement": "carcinogen call", "setting": "Species: RAT, Strain/Sex: F344/MALE, Route: MUCOUS MEMBRANE, Dose: 0, 0.3 ML OF A 15 MMOL WATER SOLUTION 1/D 3 D/WK FOR 1 WK THEN 1/D 5 D/WK FOR WK 2-4 THEN 2/D 5 D/WK FOR WK 5-6 (STUDY D, Tumor Site: Type of Lesion: NASAL CAVITY: CARCINOMA, PAPILLOMA, ADENOMA, LUNG: ADENOCARCINOMA, ADENOMA, LIVER: CARCINOMA, ADENOMA, ESOPHAGUS: PAPILL, Tumor Site: Type of Lesion: NASAL CAVITY: CARCINOMA, PAPILLOMA, ADENOMA, LUNG: ADENOCARCINOMA, ADENOMA, LIVER: CARCINOMA, ADENOMA, ESOPHAGUS: PAPILL", "result": "active; positive"},
      {"measurement": "carcinogen call", "setting": "Species: RAT, Strain/Sex: F344/MALE, Route: SUBCUTANEOUS, Dose: 0, 0.019 MMOL 3/WK FOR 20 WK (STUDY DURATION: 24 WK), Tumor Site: Type of Lesion: ESOPHAGUS: PAPILLOMA, NASAL CAVITY: PAPILLOMA, TONGUE: PAPILLOMA OR CARCINOMA, Tumor Site: Type of Lesion: ESOPHAGUS: PAPILLOMA, NASAL CAVITY: PAPILLOMA, TONGUE: PAPILLOMA OR CARCINOMA", "result": "active; positive"}
    ]},
    {"smiles": "ClCC1CO1", "note": "(stereo not given)", "values": [
      {"measurement": "carcinogen call", "setting": "Species: MOUSE, Route: DERMAL, Tumor Site: Type of Lesion: INTEGUMENTARY SYSTEM (SKIN)", "result": "active; positive"},
      {"measurement": "carcinogen call", "setting": "Species: MOUSE, Route: SUBCUTANEOUS, Tumor Site: Type of Lesion: INJECTION SITE", "result": "active; positive"},
      {"measurement": "carcinogen call", "setting": "Species: RAT, Strain/Sex: WISTAR/FEMALE, Route: GAVAGE, Dose: 0, 2, 10 MG/KG IN WATER 5 D/WK FOR 104 WK (STUDY DURATION: 24 MO), Dose: 0, 2, 10 MG/KG IN WATER 5 D/WK FOR 104 WK (STUDY DURATION: 24 MO), Tumor Site: Type of Lesion: FORESTOMACH: SQUAMOUS CELL CARCINOMA", "result": "active; positive"},
      {"measurement": "carcinogen call", "setting": "Species: RAT, Strain/Sex: WISTAR/MALE, Route: GAVAGE, Dose: 0, 2, 10 MG/KG IN WATER 5 D/WK FOR 104 WK (STUDY DURATION: 24 MO), Dose: 0, 2, 10 MG/KG IN WATER 5 D/WK FOR 104 WK (STUDY DURATION: 24 MO), Tumor Site: Type of Lesion: FORESTOMACH: SQUAMOUS CELL CARCINOMA", "result": "active; positive"}
    ]},
    {"smiles": "O=C(O)CCCOc1ccc(Cl)cc1Cl", "values": [
      {"measurement": "carcinogen call", "setting": "Species: MOUSE, Strain/Sex: ICR/FEMALE, Route: ORAL, Dose: 0, 25, 250, 750 PPM IN DIET FOR 78 WK (STUDY DURATION: 78 WK), Dose: 0, 25, 250, 750 PPM IN DIET FOR 78 WK (STUDY DURATION: 78 WK)", "result": "inactive; negative"},
      {"measurement": "carcinogen call", "setting": "Species: MOUSE, Strain/Sex: ICR/MALE, Route: ORAL, Dose: 0, 25, 250, 750 PPM IN DIET FOR 78 WK (STUDY DURATION: 78 WK), Dose: 0, 25, 250, 750 PPM IN DIET FOR 78 WK (STUDY DURATION: 78 WK)", "result": "inactive; negative"},
      {"measurement": "carcinogen call", "setting": "Species: RAT, Strain/Sex: SPRAGUE-DAWLEY/FEMALE, Route: ORAL, Dose: 0, 60, 600, 1800 PPM IN DIET FOR 104 WK (STUDY DURATION: 104 WK), Dose: 0, 60, 600, 1800 PPM IN DIET FOR 104 WK (STUDY DURATION: 104 WK)", "result": "inactive; negative"},
      {"measurement": "carcinogen call", "setting": "Species: RAT, Strain/Sex: SPRAGUE-DAWLEY/MALE, Route: ORAL, Dose: 0, 60, 600, 1800 PPM IN DIET FOR 104 WK (STUDY DURATION: 104 WK), Dose: 0, 60, 600, 1800 PPM IN DIET FOR 104 WK (STUDY DURATION: 104 WK)", "result": "inactive; negative"}
    ]},
    {"smiles": "[Be]=[O]", "values": [
      {"measurement": "carcinogen call", "setting": "Species: RABBIT, Route: INTRAVENOUS, INTRAMEDULLARY, Tumor Site: Type of Lesion: BONE: OSTEOSARCOMA", "result": "active; positive"}
    ]},
    {"smiles": "Cc1cc(-c2ccc(N/N=C3/C(=O)c4c(N)cc(S(=O)(=O)O)cc4C=C3S(=O)(=O)O)c(C)c2)ccc1N/N=C1/C(=O)c2c(N)cc(S(=O)(=O)O)cc2C=C1S(=O)(=O)O", "values": [
      {"measurement": "carcinogen call", "setting": "Species: RAT, Route: INTRAPERITONEAL, SUBCUTANEOUS, Tumor Site: Type of Lesion: LIVER, INJECTION SITE", "result": "active; positive"}
    ]}
  ]
}
